Measured values published in patent publication US20160120949A1, “USES OF IL-12 IN HEMATOPOIETIC IMMUNOTHERAPY (HIT)” (Neumedicines, Inc., priority 2014, published 2016).
Structures can show the parent of a compound that is named as a salt.

Legend:
[1] = system: non-human primates (rhesus monkeys); experiment: Pharmacodynamic response (IFN-γ) in non-human primates in vitro and in vivo; settings: both in vitro and in vivo
human immune cells = experiment: Pharmacodynamic response (IFN-γ) in human immune cells in vitro; format: cell-based
[2] = system: Irradiated, Unsupported Rhesus Monkeys; experiment: Radiomitigation study in myeloablated, lethally irradiated, unsupported nonhuman primates; format: in vivo
Method: FIG. 3: Kaplan-Meier Survival Curves of Irradiated, Unsupported Monkeys Treated with HemaMax™. Pooled HemaMax™ dosing group is shown. No antibiotics were used during the study. One animal with a broken tooth was excluded from the study because of an unrelated death to the study. p<0.05 pooled treatment groups.
FIGS. 4A-4B: Leukocyte (A) and Thrombocyte (B) Counts in Irradiated, Unsupported Rhesus Monkeys Treated With HemaMax™. Three analyses were conducted to assess differences in blood cell counts during the study period.
FIG. 4 describes […] Counts in Irradiated, Unsupported Rhesus Monkeys Treated With HemaMax™. Three analyses were conducted to assess differences in blood cell counts during the study period.

[3] = infusion time beyond 60 minutes; cited from earlier work
[4] = controlled room temperature 20° C. to 25° C.; cited from earlier work
[5] = cited from earlier work
[6] = cited from earlier work; remark: listed apart in the source
[7] = system: Lewis Lung cancer tumor model; experiment: Tumor volume after radiation (625 rad), Lewis Lung cancer tumor model; format: in vivo, mice; settings: 625 rad day 1 and second dose day 22, rMuIL-12 post-treatment, endpoint of tumor growth evaluation
Source text: (§1) FIGS. 2A-2B: Relative Changes in Tumor Volumes for Vehicle and rMuIL-12 Treatment Groups Following Radiation (625 rad). Changes in tumor volumes over the course of the experiment are shown for the EL4 lymphoma tumor model (A) and the Lewis Lung cancer tumor model (B). Mice in both tumor models were given 625 rad on day 1. Mice in both tumor models were given a second dose of radiation on day 22 following the initial radiation dose.
as §1, with “FIG. 2 A-B describe” for “FIGS. 2A-2B:”, “(a)” for “(A)”, “(b).” for “(B).”

Lewis Lung tumor = Lewis Lung tumor model with two rounds of gemcitabine monotherapy, tumor volume; format: in vivo, mouse; settings: gemcitabine 6.6 mg IP twice, one week apart; differences not statistically significant
Method: The study evaluate the effect of rMuIL-12 on tumor growth in a mouse chemotherapy model was followed up with a second study to examine the growth in the same Lewis Lung model when gemcitabine was used as monotherapy and administered two times, one week apart. rMuIL-12 was also administered as pre-dosing and post-dosing, as described above, and also with a 24 hour post group and on the same day as chemotherapy administration. rMuIL-12 was administered at either both weeks of chemotherapy or only the first week. There were five groups with n=5 for each group. These groups are described below: Chemotherapy once weekly: Gemcitabine only, administered IP, 6.6 mg rMuIL-12 given weekly, three schedules: 24 hours pre-chemotherapy (Pre); Same day as chemotherapy (SD); 24 hours post chemotherapy (Post1=24 hrs-post; Post2=48 hrs-post).
By way of example, FIG. 10 describes Lewis Lung Tumor Volume of Mice Under Monotherapy With Gemcitabine Receiving rMuIL-12. Day 0 is the time of the first chemotherapy. The second chemotherapy administration took place at day 7. […] The differences in growth among groups were not statistically significant.

[8] = system: neutrophils, red blood cells and platelets; experiment: Blood recovery after myelosuppressive radiation (625 rad), Lewis lung cancer model; format: in vivo, mice; settings: days 14-21
Source text: (§2) FIGS. 1A-1B: Blood Recovery Profiles for Vehicle and rMuIL-12 Administered Before and After Myelosuppresive Radiation (625 rad). Blood cell recovery profiles are shown for the EL4 lymphoma tumor model (A) and the Lewis lung cancer model (B) for neutrophils, red blood cells and platelets. Pre-radiation blood values reflect an average of all animals in both groups before radiation and tumor inoculation. The normal threshold value for murine blood cell counts is indicated by the dashed line.
(§3) Platelet recovery profiles are shown for the EL4 lymphoma tumor model (a) and the Lewis lung cancer model (b).

Lewis Lung tumor cells = experiment: Lewis Lung mouse tumor model with concomitant GC chemotherapy, tumor volume; format: in vivo; settings: 20 ng subcutaneously before, after or before/after GC; differences not statistically significant
Method: The effect of rMuIL-12 administration on tumor growth in a mouse tumor chemotherapy model was evaluated. The tumor model used Lewis Lung tumor cells that were subcutaneously injected (100,000 cells) in each mouse. At a given time after tumor inoculation, mice were treated with chemotherapy. The gemcitabine/carboplatin chemotherapy regimen as described above was used and administered IP. rMuIL-12 was administered subcutaneously (20 ng) before, after, or before/after chemotherapy as indicated below.
Pre-dosing (n=16): rMuIL-12 was given 24 hours before chemotherapy treatment,
Post-dosing (n=16): rMuIL-12 was administered 48 hours after chemotherapy treatment
Pre/post dosing (n=16): rMuIL-12 was given 24 hours before chemotherapy and 48 hours after chemotherapy. Control (n=16)
Tumor volume was monitored over time to compared tumor growth in the control compared to rMuIL-12 treated mice. […] The differences among groups in tumor growth were not statistically significant.

femoral bone marrow = experiment: Hematopoietic recovery in irradiated mice (TBI 8.0 Gy), femoral bone marrow IHC for IL-12Rβ2; format: in vivo; settings: 20 ng/mouse subcutaneously post irradiation, 12 days after irradiation
Method: FIGS. 6A-6F: Murine IL-12 Promotes Hematopoietic Recovery in Irradiated Mice. Representative sections of femoral bone marrow from non-irradiated, untreated mice that were stained for IL-12Rβ2 are shown in (A). Animals were subjected to TBI (8.0 Gy) and subsequently received vehicle or rMuIL-12 (20 ng/mouse) subcutaneously at the indicated times post irradiation (B-F). Femoral bone marrow was immunohistochemically stained for IL-12Rβ2 (orange color) 12 days after irradiation. […] Magnification=100×.
By way of example, FIG. 6 describes Murine IL-12 Promotes Hematopoietic Recovery in Irradiated Mice. Representative sections of femoral bone marrow from non-irradiated, untreated mice that were stained for IL-12Rβ2 (orange color) are shown in (a). Animals were subjected to TBI (8.0 Gy) and subsequently received vehicle or rMuIL-12 (20 ng/mouse) subcutaneously at the indicated times post irradiation (b-f). Femoral bone marrow was immunohistochemically stained for IL-12Rβ2 (orange color) 12 days after irradiation.

EL4 lymphoma tumor model = experiment: Tumor volume after radiation (625 rad), EL4 lymphoma tumor model; format: in vivo, mice; settings: 625 rad day 1 and second dose day 22, pre, post and pre-post radiation dosing groups, endpoint of tumor volume evaluation
Source text: as §1
as §1, with “FIG. 2 A-B describe” for “FIGS. 2A-2B:”, “(a)” for “(A)”, “(b).” for “(B).”

platelets = experiment: Chemotherapy induced thrombocytopenia (CIT) model, gemcitabine/carboplatin (GC) chemotherapy, platelet counts; format: in vivo, mice; settings: for % platelet counts from baseline (average and standard deviation): day 8
Method: The effect of rMuIL-12 administration in conjunction with gemcitabine/carboplatin chemotherapy (GC) (6.6 mg gemcitabine dose+2 mg carboplatin) was examined. Mice received GC intravenously on day 0.
Pre-dosing: rMuIL-12 was given 24 hours before chemotherapy treatment (n=18)
Post-dosing: rMuIL-12 was administered 48 hours after chemotherapy treatment (n=19) Pre/post dosing: rMuIL-12 was given 24 hours before chemotherapy and 48 hours after chemotherapy (n=13)
Averages of % platelet counts from baseline and standard deviations for each group at day 8 were: […]

[9] = system: neutrophils, red blood cells and platelets; experiment: Blood recovery after myelosuppressive radiation (625 rad), EL4 lymphoma tumor model; format: in vivo, mice; settings: days 14-21
Source text: as §2, §3

Lin-IL-12Rβ2-cells = experiment: Megacult colony culture with and without IL-12; format: cell-based; settings: megacult medium, 5000 cells/slide
Method: FIG. 7: Lin-IL-12Rβ2-cells were plated in megacult medium at 5000 cells/slide with and without IL-12.
By way of example, FIG. 7 describes Lin-IL-12RB2-cells were plated in megacult medium at 5000 cells/slide with and without IL-12.

[10] = days 12 and 14, 100 ng/kg and 250 ng/kg doses
[11] = rMuIL-12 before and after 625 rad

HemaMax: recombinant human IL-12, heterodimeric glycoprotein of p35 and p40 subunits, 503 amino acids, produced in CHO cells
pharmacodynamic response (interferon-γ [IFN-γ]) [1]: potently elicits
pharmacodynamic response (interferon-γ [IFN-γ]) (human immune cells): potently elicits
numbers of leukocytes as compared to vehicle [2, 10]: significantly higher numbers
numbers of thrombocytes as compared to vehicle [2, 10]: significantly higher numbers
monkeys that required a platelet transfusion ([2]; lethal radiation NHP study, vehicle 80%): 25%
platelet and WBC nadirs ([2]; lethally irradiated NHP): attenuates
survival ([2]; lethally irradiated NHP, no antibiotics, pooled dosing groups): increases survival

Nc1ccn([C@@H]2O[C@H](CO)[C@@H](O)C2(F)F)c(=O)n1 [Gemzar, 2′-deoy-2′,2′-difluorocytidine monohydrochloride (β-isomer)]
toxicity on prolongation of infusion time beyond 60 minutes [3]: minutes has been shown to increase toxicity.
stability of prepared solutions [4]: 24 h
maximum concentration upon reconstitution (solubility considerations) ([5]; 0.9% Sodium Chloride Injection): 40 mg/mL
solubility in ethanol and polar organic solvents ([5]; ethanol and polar organic solvents): practically insoluble in ethanol and polar organic
solubility in methanol ([5]; methanol): slightly soluble
solubility in water ([5]; water): soluble
acute dermal irritation ([6]; animal studies): not been observed
rabbits with drug-related systemic toxicities (death, hypoactivity, nasal discharge, shallow breathing) due to dermal absorption ([6]; rabbits, dermal): two of three

B1: rMuIL-12: murine recombinant IL-12, the murine counterpart to HemaMax (protein, UniProt P43431 23-215; P43432 23-335, looked up)
Interleukin-12 subunit alpha: RVIPVSGPARCLSQSRNLLKTTDDMVKTAREKLKHYSCTAEDIDHEDITRDQTSTLKTCLPLELHKNESCLATRETSSTTRGSCLPPQKTSLMMTLCLGSIYEDLKMYQTEFQAINAALQNHNHQQIILDKGMLVAIDELMQSLNHNGETLRQKPPVGEADPYRVKMKLCILLHAFSTRVVTINRVMGYLSSA
Interleukin-12 subunit beta: MWELEKDVYVVEVDWTPDAPGETVNLTCDTPEEDDITWTSDQRHGVIGSGKTLTITVKEFLDAGQYTCHKGGETLSHSHLLLHKKENGIWSTEILKNFKNKTFLKCEAPNYSGRFTCSWLVQRNMDLKFNIKSSSSSPDSRAVTCGMASLSAEKVTLDQRDYEKYSVSCQEDVTCPTAEETLPIELALEARQQNKYENYSTSFFIRDIIKPDPPKNLQMKPLKNSQVEVSWEYPDSWSTPHSYFSLKFFVRIQRKKEKMKETEEGCNQKGAFLVEKTSTEVQCKGGNVCVQAQDRYYNSSCSKWACVPCRVRS
tumor growth % T/C [7]: < 50%
tumor growth rate (tumor volume) (Lewis Lung tumor): did not increase the tumor growth rate
platelet counts as compared to the vehicle control ([8]; 625 rad): statistically significant improvements
blood cell counts as compared to the vehicle control [8, 11]: statistically significant improvements
tumor growth (tumor volume) (Lewis Lung tumor cells): did not increase tumor growth
hematopoietic recovery in femoral bone marrow (femoral bone marrow): hematopoietic reconstitution
tumor growth % T/C (EL4 lymphoma tumor model): < 50%
animals with a decrease in platelets of more than 33% (platelets; all rMuIL-12 treated groups): 0 out of 50
% platelet counts from baseline (average and standard deviation) (platelets; Post-dosing: 48 hours after chemotherapy): 110±37%
% platelet counts from baseline (average and standard deviation) (platelets; Pre-dosing: 24 hours before chemotherapy): 79±34%
% platelet counts from baseline (average and standard deviation) (platelets; Pre/Post dosing: 24 hours before and 48 hours after chemotherapy): 111±33%
mice with platelet levels that dropped one-third of baseline level or more (platelets; rMuIL-12 prior to, after or both prior to and after chemotherapy, 8 days after chemotherapy): 0%
platelet counts as compared to the vehicle control ([9]; 625 rad): statistically significant improvements
blood cell counts as compared to the vehicle control [9, 11]: statistically significant improvements

B2: IL-12: heterodimeric cytokine comprising p40 and p35 subunits; species of the IL-12 used in the megacult culture not stated (protein, UniProt P29459 23-219; P29460 23-328, looked up)
Interleukin-12 subunit alpha: RNLPVATPDPGMFPCLHHSQNLLRAVSNMLQKARQTLEFYPCTSEEIDHEDITKDKTSTVEACLPLELTKNESCLNSRETSFITNGSCLASRKTSFMMALCLSSIYEDLKMYQVEFKTMNAKLLMDPKRQIFLDQNMLAVIDELMQALNFNSETVPQKSSLEEPDFYKTKIKLCILLHAFRIRAVTIDRVMSYLNAS
Interleukin-12 subunit beta: IWELKKDVYVVELDWYPDAPGEMVVLTCDTPEEDGITWTLDQSSEVLGSGKTLTIQVKEFGDAGQYTCHKGGEVLSHSLLLLHKKEDGIWSTDILKDQKEPKNKTFLRCEAKNYSGRFTCWWLTTISTDLTFSVKSSRGSSDPQGVTCGAATLSAERVRGDNKEYEYSVECQEDSACPAAEESLPIEVMVDAVHKLKYENYTSSFFIRDIIKPDPPKNLQLKPLKNSRQVEVSWEYPDTWSTPHSYFSLTFCVQVQGKSKREKKDRVFTDKTSATVICRKNASISVRAQDRYYSSSWSEWASVPCS
colony size in comparison to media alone (Lin-IL-12Rβ2-cells): larger colonies
